Data set [1] addresses T1, Mitogen-activated protein kinase kinase kinase 5 (Homo sapiens, UniProt Q99683).
T1 sequence (Q99683 whole entry): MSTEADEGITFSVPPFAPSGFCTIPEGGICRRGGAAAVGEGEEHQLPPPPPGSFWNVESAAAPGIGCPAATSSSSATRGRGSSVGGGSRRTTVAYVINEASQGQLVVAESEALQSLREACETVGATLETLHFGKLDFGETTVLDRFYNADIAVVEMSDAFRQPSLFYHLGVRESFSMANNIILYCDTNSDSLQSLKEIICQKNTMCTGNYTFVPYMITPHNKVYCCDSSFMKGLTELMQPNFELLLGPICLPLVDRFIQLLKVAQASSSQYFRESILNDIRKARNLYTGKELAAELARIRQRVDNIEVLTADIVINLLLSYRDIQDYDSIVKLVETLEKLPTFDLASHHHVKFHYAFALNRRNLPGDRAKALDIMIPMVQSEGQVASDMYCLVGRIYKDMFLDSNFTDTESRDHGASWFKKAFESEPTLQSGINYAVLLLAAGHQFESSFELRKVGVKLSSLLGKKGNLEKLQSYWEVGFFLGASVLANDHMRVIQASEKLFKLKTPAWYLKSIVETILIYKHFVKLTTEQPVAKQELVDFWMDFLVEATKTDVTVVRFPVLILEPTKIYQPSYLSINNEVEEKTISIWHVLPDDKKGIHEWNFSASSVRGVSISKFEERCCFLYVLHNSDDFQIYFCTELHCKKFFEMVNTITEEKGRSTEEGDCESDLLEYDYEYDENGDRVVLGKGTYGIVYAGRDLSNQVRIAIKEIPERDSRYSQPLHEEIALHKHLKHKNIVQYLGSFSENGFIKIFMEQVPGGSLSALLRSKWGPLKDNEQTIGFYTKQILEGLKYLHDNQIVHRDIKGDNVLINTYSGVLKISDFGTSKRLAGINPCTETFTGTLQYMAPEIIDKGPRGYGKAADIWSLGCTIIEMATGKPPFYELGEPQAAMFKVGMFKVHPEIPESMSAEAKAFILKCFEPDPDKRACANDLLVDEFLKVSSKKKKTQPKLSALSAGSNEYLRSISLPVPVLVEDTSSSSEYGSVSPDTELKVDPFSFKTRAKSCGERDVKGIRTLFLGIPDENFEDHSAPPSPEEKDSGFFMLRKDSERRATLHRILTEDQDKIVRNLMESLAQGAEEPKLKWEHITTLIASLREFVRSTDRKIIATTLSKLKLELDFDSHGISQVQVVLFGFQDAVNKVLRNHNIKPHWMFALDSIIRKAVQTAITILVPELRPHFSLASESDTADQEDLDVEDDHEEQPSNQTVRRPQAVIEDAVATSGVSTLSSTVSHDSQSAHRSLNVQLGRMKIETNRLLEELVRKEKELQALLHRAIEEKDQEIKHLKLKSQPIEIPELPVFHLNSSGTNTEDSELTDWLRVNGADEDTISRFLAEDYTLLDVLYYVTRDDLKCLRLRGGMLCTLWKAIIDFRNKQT
Kind of data set: Inhibition of ASK1 (unknown origin) assessed as reduction in JNK phosphorylation by cell based assay.

Data set [2] has as its target Macrophage-stimulating protein receptor (Homo sapiens, UniProt Q04912). Kind of data set: Inhibition of recombinant human GST-tagged RON cytoplasmic domain expressed in baculovirus expression system.
A further data set deals with CYP2C9 (Homo sapiens, UniProt P11712). Kind of data set: Inhibition of CYP2C9 (unknown origin) at 10 uM relative to control. Type of data set: ADME.
Data set [3] concerns the target T2, Tyrosine-protein kinase ITK/TSK (Homo sapiens, UniProt Q08881).
T2 sequence (Q08881 whole entry): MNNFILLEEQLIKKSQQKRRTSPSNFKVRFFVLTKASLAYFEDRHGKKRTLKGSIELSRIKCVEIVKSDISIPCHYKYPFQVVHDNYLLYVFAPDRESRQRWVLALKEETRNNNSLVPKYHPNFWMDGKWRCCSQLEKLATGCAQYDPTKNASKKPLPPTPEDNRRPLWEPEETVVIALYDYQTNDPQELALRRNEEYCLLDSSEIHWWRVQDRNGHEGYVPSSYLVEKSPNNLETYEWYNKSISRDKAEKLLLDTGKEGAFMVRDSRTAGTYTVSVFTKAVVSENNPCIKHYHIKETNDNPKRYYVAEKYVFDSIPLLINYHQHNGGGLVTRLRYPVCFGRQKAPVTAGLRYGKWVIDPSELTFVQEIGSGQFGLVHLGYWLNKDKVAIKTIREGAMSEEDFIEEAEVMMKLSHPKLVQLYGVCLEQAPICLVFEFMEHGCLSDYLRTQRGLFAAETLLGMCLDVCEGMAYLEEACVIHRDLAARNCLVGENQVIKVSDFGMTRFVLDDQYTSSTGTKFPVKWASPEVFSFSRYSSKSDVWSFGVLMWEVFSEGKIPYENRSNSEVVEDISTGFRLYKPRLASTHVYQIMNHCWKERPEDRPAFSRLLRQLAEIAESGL
As to the kind of experiment: Inhibition of recombinant full length human GST-tagged ITK expressed in baculovirus expression system.

Data set [4] addresses Epidermal growth factor receptor (Homo sapiens, UniProt P00533). As to the kind of experiment: Inhibition of recombinant human GST-tagged EGFR cytoplasmic domain (668 to 1210 residues) expressed in baculovirus expression system.
Data set [5] has as its target Proto-oncogene tyrosine-protein kinase receptor Ret (Homo sapiens, UniProt P07949). Kind of data set: Inhibition of recombinant human GST-tagged RET cytoplasmic domain expressed in baculovirus expression system.
Data set [6] is described as follows: Intrinsic clearance in human liver microsomes. Type of data set: ADME, microsome. Particulars: read-out: CLH. On the technique in general: Liver microsomes are vesicles of endoplasmic reticulum, rich in cytochrome P450 enzymes.
For the next data set, the target named is MAP kinase p38 (Homo sapiens, UniProt O15264+Q15759+Q16539+P53778). Kind of data set: Inhibition of MAPK p38 (unknown origin).

Some results are limits rather than exact numbers.

Proto-oncogene tyrosine-protein kinase receptor Ret, sequence (P07949 whole entry, the tested form may be a part): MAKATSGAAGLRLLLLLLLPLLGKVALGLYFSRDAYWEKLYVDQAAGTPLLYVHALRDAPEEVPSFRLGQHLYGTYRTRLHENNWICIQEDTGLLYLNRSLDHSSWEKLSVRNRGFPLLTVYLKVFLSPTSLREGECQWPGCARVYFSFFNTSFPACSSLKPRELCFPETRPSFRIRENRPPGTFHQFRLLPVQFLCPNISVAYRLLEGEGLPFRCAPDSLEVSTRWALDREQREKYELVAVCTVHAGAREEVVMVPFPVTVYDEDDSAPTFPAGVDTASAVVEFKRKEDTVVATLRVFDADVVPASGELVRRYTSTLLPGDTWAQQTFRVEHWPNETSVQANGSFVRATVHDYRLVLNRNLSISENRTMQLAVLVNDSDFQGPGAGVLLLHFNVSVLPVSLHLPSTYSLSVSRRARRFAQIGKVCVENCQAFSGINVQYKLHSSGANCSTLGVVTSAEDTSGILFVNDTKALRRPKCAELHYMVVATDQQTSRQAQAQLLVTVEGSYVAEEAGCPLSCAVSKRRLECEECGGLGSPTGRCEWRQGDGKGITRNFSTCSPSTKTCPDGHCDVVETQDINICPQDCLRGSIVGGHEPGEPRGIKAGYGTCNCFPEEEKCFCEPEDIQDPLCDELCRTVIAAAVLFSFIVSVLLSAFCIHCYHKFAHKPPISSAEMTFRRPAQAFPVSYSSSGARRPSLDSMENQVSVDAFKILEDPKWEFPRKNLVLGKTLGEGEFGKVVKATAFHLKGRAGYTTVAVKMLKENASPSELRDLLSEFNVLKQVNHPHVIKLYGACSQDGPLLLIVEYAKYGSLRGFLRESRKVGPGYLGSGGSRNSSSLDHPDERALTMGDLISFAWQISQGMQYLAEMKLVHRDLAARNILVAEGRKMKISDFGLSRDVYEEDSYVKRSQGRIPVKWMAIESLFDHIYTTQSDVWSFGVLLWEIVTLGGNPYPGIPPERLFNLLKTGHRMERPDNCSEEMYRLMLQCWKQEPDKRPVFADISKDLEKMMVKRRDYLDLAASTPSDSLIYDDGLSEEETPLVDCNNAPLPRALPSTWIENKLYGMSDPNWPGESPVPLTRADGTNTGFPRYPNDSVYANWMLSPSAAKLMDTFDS
Epidermal growth factor receptor, sequence (P00533 whole entry, the tested form may be a part): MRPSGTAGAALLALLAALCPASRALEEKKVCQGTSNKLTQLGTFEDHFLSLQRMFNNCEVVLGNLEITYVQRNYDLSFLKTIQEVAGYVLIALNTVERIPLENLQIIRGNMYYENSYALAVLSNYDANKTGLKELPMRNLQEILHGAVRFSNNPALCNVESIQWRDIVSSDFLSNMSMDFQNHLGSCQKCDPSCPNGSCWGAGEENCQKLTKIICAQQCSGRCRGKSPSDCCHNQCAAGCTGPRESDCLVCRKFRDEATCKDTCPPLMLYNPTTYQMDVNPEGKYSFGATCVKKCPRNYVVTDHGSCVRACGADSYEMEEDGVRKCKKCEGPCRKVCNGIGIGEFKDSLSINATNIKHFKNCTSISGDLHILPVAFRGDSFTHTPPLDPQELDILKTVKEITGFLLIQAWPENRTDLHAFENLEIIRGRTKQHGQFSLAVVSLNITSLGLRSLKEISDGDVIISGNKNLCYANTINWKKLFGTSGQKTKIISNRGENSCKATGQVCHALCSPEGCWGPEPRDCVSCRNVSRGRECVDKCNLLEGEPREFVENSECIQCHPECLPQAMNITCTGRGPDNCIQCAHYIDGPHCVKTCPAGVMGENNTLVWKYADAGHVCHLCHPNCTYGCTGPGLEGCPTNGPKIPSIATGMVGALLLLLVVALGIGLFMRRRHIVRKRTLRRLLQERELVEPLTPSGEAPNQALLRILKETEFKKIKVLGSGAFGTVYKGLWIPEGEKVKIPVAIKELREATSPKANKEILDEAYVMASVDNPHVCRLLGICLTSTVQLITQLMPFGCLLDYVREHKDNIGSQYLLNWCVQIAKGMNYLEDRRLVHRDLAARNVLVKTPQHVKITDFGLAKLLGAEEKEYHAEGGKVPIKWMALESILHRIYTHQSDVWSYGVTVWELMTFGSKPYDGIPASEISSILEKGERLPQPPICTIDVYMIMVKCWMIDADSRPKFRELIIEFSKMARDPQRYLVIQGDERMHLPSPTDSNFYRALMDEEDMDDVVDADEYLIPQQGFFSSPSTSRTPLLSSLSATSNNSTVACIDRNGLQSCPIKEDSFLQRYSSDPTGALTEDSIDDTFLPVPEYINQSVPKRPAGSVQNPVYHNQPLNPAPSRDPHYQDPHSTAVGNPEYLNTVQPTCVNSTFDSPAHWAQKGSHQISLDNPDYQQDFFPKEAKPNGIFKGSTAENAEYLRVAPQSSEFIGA
Macrophage-stimulating protein receptor, sequence (Q04912 25-304 limits assumed): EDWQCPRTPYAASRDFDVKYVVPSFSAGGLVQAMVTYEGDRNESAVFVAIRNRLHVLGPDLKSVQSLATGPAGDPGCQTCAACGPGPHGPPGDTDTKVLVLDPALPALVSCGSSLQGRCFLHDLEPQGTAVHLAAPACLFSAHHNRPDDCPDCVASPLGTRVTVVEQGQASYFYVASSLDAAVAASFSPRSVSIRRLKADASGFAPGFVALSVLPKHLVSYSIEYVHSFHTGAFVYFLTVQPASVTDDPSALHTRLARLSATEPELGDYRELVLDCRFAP
Macrophage-stimulating protein receptor, sequence (Q04912 310-1400 limits assumed): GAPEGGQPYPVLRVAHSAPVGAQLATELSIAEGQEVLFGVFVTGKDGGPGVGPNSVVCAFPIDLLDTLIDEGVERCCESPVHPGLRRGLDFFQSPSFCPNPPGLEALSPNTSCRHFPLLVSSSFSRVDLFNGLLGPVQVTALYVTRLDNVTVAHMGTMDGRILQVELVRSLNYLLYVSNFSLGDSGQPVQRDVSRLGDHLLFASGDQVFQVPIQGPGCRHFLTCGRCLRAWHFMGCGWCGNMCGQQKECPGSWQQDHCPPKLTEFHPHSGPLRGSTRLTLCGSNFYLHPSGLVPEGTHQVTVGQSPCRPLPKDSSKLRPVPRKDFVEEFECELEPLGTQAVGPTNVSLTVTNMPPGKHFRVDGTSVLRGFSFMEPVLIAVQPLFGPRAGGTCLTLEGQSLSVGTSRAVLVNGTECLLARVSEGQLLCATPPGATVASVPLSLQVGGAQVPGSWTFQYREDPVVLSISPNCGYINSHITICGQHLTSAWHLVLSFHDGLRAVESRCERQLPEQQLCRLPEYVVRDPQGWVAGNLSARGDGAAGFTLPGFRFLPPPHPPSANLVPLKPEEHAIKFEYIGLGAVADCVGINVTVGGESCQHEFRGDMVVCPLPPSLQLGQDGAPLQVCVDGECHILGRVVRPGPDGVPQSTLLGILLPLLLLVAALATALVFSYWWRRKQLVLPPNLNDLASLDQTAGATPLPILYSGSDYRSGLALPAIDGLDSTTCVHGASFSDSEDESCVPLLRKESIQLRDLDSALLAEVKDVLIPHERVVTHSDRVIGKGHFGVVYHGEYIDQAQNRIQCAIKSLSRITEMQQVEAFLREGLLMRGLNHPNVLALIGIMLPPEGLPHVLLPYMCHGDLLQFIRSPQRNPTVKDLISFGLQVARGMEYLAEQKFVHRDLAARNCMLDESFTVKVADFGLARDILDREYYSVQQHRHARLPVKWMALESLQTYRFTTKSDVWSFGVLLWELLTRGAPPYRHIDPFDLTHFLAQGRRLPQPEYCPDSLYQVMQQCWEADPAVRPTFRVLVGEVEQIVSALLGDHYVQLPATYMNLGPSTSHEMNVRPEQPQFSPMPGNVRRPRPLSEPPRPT
CYP2C9, sequence (P11712 whole entry): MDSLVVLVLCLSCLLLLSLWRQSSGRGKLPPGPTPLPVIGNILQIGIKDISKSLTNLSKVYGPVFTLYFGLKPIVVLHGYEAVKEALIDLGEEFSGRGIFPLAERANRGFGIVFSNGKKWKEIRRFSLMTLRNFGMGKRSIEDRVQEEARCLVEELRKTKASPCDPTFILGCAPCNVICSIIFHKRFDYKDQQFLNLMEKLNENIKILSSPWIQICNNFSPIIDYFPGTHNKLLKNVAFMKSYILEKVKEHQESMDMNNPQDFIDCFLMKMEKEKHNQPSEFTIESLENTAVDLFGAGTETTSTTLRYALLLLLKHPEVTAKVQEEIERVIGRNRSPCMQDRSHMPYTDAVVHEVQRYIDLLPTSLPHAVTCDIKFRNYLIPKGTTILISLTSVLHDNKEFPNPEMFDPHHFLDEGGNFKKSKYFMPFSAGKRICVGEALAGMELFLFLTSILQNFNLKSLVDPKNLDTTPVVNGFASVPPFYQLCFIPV

With `COCCn1cc(NC(=O)c2csc(-c3nncn3C(C)C)n2)cn1`, the EC50 (as a rule, the concentration at which the effect is half-maximal) in data set [1] is 60 nM. The IC50 (usually the concentration at which inhibition is half-maximal) in data set [2] was greater than 20000 nM; in data set [3], greater than 20000 nM; in data set [4], greater than 20000 nM; in data set [5] it was 617 nM. Further, the inhibition (commonly the relative decrease from the control value, in per cent) at 10 µM against CYP2C9 was determined as 36%. In data set [6], the CLint scaled is 8.8 mL/min/kg. Besides, the pIC50 (in general, the IC50 on a negative log10 scale, so that one unit is a factor of ten) against MAP kinase p38 is less than 4.7.

These data come from ChEMBL document CHEMBL4007491, “Structure-based drug design of novel ASK1 inhibitors using an integrated lead optimization strategy” (Bioorg Med Chem Lett, 2017).
